Source: PMC6220849, “Mechanistic and structural studies of KDM‐catalysed demethylation of histone 1 isotype 4 at lysine 26” (Febs Letters, 2018)
Square brackets hold non-standard residues; d marks the D form. Ends that are not written are not given here. Lys(Me2) = CN(C)CCCC[C@H](N)C(=O)O

What was measured:
recombinant human KDM4A = target: T1, recombinant human KDM4A (Homo sapiens, UniProt O75164); test: Formaldehyde dehydrogenase (FDH)-coupled demethylation assay, Michaelis–Menten kinetics; format: biochemical; settings: peptide as substrate
T1 construct: recombinantly expressed as reported either in Escherichia coli (KDM2A1–557 25, KDM4A1–359 26); His6 (N); made in house; host or cells: Escherichia coli
T1 sequence (O75164 1-359): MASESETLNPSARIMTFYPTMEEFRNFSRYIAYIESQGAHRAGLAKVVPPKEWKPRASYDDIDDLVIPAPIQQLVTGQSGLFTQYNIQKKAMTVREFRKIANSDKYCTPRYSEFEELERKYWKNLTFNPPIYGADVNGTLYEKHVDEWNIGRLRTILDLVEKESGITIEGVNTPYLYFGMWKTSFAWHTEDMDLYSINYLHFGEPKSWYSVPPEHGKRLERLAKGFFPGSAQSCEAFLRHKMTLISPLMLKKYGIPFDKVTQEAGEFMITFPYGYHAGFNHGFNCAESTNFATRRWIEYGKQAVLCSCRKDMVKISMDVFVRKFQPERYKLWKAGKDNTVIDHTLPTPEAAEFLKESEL
Experimental: Kinetic parameters for KDM4 enzymes were determined by use of an FDH (formaldehyde dehydrogenase)/NAD^+‐coupled) assay for quantification of the formaldehyde reaction byproduct, as previously described 27. […] Specific activities were measured using a 100‐μM peptide. For Michaelis–Menten experiments, peptide concentrations were varied. Reactions were monitored using a PHERAstar FS plate reader (BMG Labtech, Ortenberg, Germany) with 355 nm excitation and 460 nm emission. Kinetic parameters were calculated from the reaction rate during the initial linear phase of formaldehyde production, which were used to calculate specific activities or fitted to Michaelis–Menten equations using […] PRISM (GraphPad Software, La Jolla, CA, USA).
Michaelis–Menten kinetics were then conducted with KDM4A. Samples containing KDM4A, 2OG, ascorbate, H1.4K26me3 peptide, NAD^+ and FDH were analysed over time and kinetic parameters were determined by recording the initial reaction rates of NADH production (corresponding to enzymatic production of formaldehyde) at varying peptide concentration.

KDM5C (KDM5C1–765) = test: MALDI-TOF MS demethylation activity assay, KDM5C; format: biochemical, human; design: key: 🟢: Indicates that clear demethylation activity was observed; 🟡: Indicates that low level demethylation activity was observed (<10% conversion after 1 h); 🔴: Indicates no activity under the stated conditions (1 μM KDM, 10 μM peptide); 🟡*: *Indicates demethylation activity was only observed with 5 μM KDM; settings: peptide as substrate, 1 μM KDM, 10 μM peptide, 50 mM HEPES pH 7.5, Fe(II) 10 μM, ascorbate 100 μM, 2OG 200 μM, 1 h at 37 °C
Experimental: (§1) Recombinant proteins (1 μM) were incubated with peptides (10 μM, sequences are given in Table S1) in 50 mM HEPES, pH 7.5 with addition of Fe(II) ammonium sulfate (10 μM), sodium ascorbate (100 μM) and 2‐oxoglutaric acid (200 μM). Reactions with KDM3A and KDM7A also contained 1 mM tris(2‐carboxyethyl)phosphine hydrochloride. No enzyme reactions were included as negative controls. Reactions were incubated for 1 h at 37 °C before being quenched with 1 : 1 (v/v) methanol. Analysis was carried out by MALDI‐TOF MS (Bruker, Billerica, MA, USA), with demethylation observed as mass shifts of 14 Da.
(§2) The propensity of human JmjC KDMs to catalyse demethylation at H1.4K26 was investigated using recombinant forms of the catalytic domains of representatives of each human JmjC KDM subfamily (KDM2‐7) and fragment peptides (Table S1) 37. Three peptides with identical sequences, corresponding to residues 18–32 of histone H1.4 (H2N‐[…]‐CONH2), but containing either a N ^ε‐tri‐, di‐ or monomethyllysine at K26 were synthesised (Fig. 1B and Table S1). Activity assays monitoring JmjC KDM‐catalysed demethylation of the peptides were then carried out; samples were prepared containing each peptide, 2‐oxoglutarate (2OG), ferrous iron, ascorbate and individual representatives from each JmjC KDM subfamily (KDM2A 38, KDM3A 21, KDM4E 22, KDM5C 39, 40, KDM6B 41, KDM7A 42).

KDM4D (KDM4D1–359) = test: MALDI-TOF MS demethylation activity assay, KDM4D; format: biochemical, human; design: key: 🟢: Indicates that clear demethylation activity was observed; 🟡: Indicates that low level demethylation activity was observed (<10% conversion after 1 h); 🔴: Indicates no activity under the stated conditions (1 μM KDM, 10 μM peptide); 🟡*: *Indicates demethylation activity was only observed with 5 μM KDM; settings: peptide as substrate, 1 μM KDM, 10 μM peptide, 50 mM HEPES pH 7.5, Fe(II) 10 μM, ascorbate 100 μM, 2OG 200 μM, 1 h at 37 °C
Experimental: as §1
(§3) Given the activity observed with KDM4E and KDM7A, we decided to investigate the intra‐subfamily conservation of this demethylation activity. The demethylation activity of the other subfamily members (KDM4A‐D and KDM7B) was therefore screened. […] Note that as with H3K9, demethylation of the monomethylated H1.4K26 peptide was only observed with KDM4E, under the stated conditions 24.

KDM4B (KDM4B1–359) = test: MALDI-TOF MS demethylation activity assay, KDM4B; format: biochemical, human; design: key: 🟢: Indicates that clear demethylation activity was observed; 🟡: Indicates that low level demethylation activity was observed (<10% conversion after 1 h); 🔴: Indicates no activity under the stated conditions (1 μM KDM, 10 μM peptide); 🟡*: *Indicates demethylation activity was only observed with 5 μM KDM; settings: peptide as substrate, 1 μM KDM, 10 μM peptide, 50 mM HEPES pH 7.5, Fe(II) 10 μM, ascorbate 100 μM, 2OG 200 μM, 1 h at 37 °C
Experimental: as §1, §3

KDM7B (PHF8; KDM7B1–447) = test: MALDI-TOF MS demethylation activity assay, KDM7B (PHF8); format: biochemical, human; design: key to demethylation activity on methylated H1.4 peptide: 🟢: Indicates that clear demethylation activity was observed; 🟡: Indicates that low level demethylation activity was observed (<10% conversion after 1 h); 🔴: Indicates no activity under the stated conditions (1 μM KDM, 10 μM peptide); 🟡*: *Indicates demethylation activity was only observed with 5 μM KDM; settings: for demethylation at increased enzyme concentration (result in words): MALDI-TOF MS time course, KDM7B 5 μM, peptide 10 μM, 37 °C
Experimental: as §1, §3
(§4) N ^ε‐Trimethylated H3K4 binds to the plant homeobox domain of KDM7B, targeting the N ^ε‐dimethyllysine at H3K9 to the catalytic domain, and thus promoting demethylation 29, 44. To test whether similar targeting may occur with H1.4, promoting activity at H1.4K26, an H1.4 peptide was synthesised containing di‐N ^ε‐methyllysine at K26 and tri‐N ^ε‐methyllysine at K21 (i.e. at the equivalent position in the sequence to K4 in the H3 peptide, Fig. 1B, Table S1). Monomethylation at H1.4K21 has previously been observed by proteomic mass spectrometry 45. With the aim of enhancing activity, the enzyme concentration was increased from 1 μM to 5 μM, and time course analyses were conducted with both KDM7A and KDM7B, both with the new peptide (H1.4(18–32)K21me3K26me2) and the H1.4 peptides methylated only at K26 (Fig. 2B). […] Thus, it appears unlikely that N ^ε‐trimethylation at H1.4K21 promotes demethylation at H1.4K26 by KDM7B.

KDM4A (KDM4A1–359) = test: MALDI-TOF MS demethylation activity assay, KDM4A; format: biochemical, human; design: key: 🟢: Indicates that clear demethylation activity was observed; 🟡: Indicates that low level demethylation activity was observed (<10% conversion after 1 h); 🔴: Indicates no activity under the stated conditions (1 μM KDM, 10 μM peptide); 🟡*: *Indicates demethylation activity was only observed with 5 μM KDM; settings: peptide as substrate, 1 μM KDM, 10 μM peptide, 50 mM HEPES pH 7.5, Fe(II) 10 μM, ascorbate 100 μM, 2OG 200 μM, 1 h at 37 °C
Experimental: as §1, §3

KDM7A (KDM7A38–480) = test: MALDI-TOF MS demethylation activity assay, KDM7A; format: biochemical, human
Experimental: as §1, §2, §4

KDM6B (KDM6B1141–1590) = test: MALDI-TOF MS demethylation activity assay, KDM6B; format: biochemical, human; design: key: 🟢: Indicates that clear demethylation activity was observed; 🟡: Indicates that low level demethylation activity was observed (<10% conversion after 1 h); 🔴: Indicates no activity under the stated conditions (1 μM KDM, 10 μM peptide); 🟡*: *Indicates demethylation activity was only observed with 5 μM KDM; settings: peptide as substrate, 1 μM KDM, 10 μM peptide, 50 mM HEPES pH 7.5, Fe(II) 10 μM, ascorbate 100 μM, 2OG 200 μM, 1 h at 37 °C
Experimental: as §1, §2

KDM3A (KDM3A515–1317) = test: MALDI-TOF MS demethylation activity assay, KDM3A; format: biochemical, human; design: key: 🟢: Indicates that clear demethylation activity was observed; 🟡: Indicates that low level demethylation activity was observed (<10% conversion after 1 h); 🔴: Indicates no activity under the stated conditions (1 μM KDM, 10 μM peptide); 🟡*: *Indicates demethylation activity was only observed with 5 μM KDM; settings: peptide as substrate, 1 μM KDM, 10 μM peptide, 50 mM HEPES pH 7.5, Fe(II) 10 μM, ascorbate 100 μM, 2OG 200 μM, 1 mM TCEP, 1 h at 37 °C
Experimental: as §1, §2

KDM4C (KDM4C1–359) = test: MALDI-TOF MS demethylation activity assay, KDM4C; format: biochemical, human; design: key: 🟢: Indicates that clear demethylation activity was observed; 🟡: Indicates that low level demethylation activity was observed (<10% conversion after 1 h); 🔴: Indicates no activity under the stated conditions (1 μM KDM, 10 μM peptide); 🟡*: *Indicates demethylation activity was only observed with 5 μM KDM; settings: peptide as substrate, 1 μM KDM, 10 μM peptide, 50 mM HEPES pH 7.5, Fe(II) 10 μM, ascorbate 100 μM, 2OG 200 μM, 1 h at 37 °C
Experimental: as §1, §3

KDM2A (KDM2A1–557) = test: MALDI-TOF MS demethylation activity assay, KDM2A; format: biochemical, human; design: key: 🟢: Indicates that clear demethylation activity was observed; 🟡: Indicates that low level demethylation activity was observed (<10% conversion after 1 h); 🔴: Indicates no activity under the stated conditions (1 μM KDM, 10 μM peptide); 🟡*: *Indicates demethylation activity was only observed with 5 μM KDM; settings: peptide as substrate, 1 μM KDM, 10 μM peptide, 50 mM HEPES pH 7.5, Fe(II) 10 μM, ascorbate 100 μM, 2OG 200 μM, 1 h at 37 °C
Experimental: as §1, §2

KDM4E (KDM4E1–337) = test: MALDI-TOF MS demethylation activity assay, KDM4E; format: biochemical, human; design: key: 🟢: Indicates that clear demethylation activity was observed; 🟡: Indicates that low level demethylation activity was observed (<10% conversion after 1 h); 🔴: Indicates no activity under the stated conditions (1 μM KDM, 10 μM peptide); 🟡*: *Indicates demethylation activity was only observed with 5 μM KDM; settings: peptide as substrate, 1 μM KDM, 10 μM peptide, 50 mM HEPES pH 7.5, Fe(II) 10 μM, ascorbate 100 μM, 2OG 200 μM, 1 h at 37 °C
Experimental: as §1, §2

[1] = concentration varied, FDH/NAD+-coupled fluorescence assay, 50 mM HEPES pH 7.5, 0.01% Tween-20, 2OG 200 μM, KDM4A, mean and standard deviation of three independent replicates, SD

| Substance | K M (recombinant human KDM4A; [1]) | k cat (recombinant human KDM4A; [1]) | k cat/K M (recombinant human KDM4A; FDH-coupled assay, ratio of k cat (s^−1) and K M (μM)) | demethylation activity on methylated H1.4 peptide (KDM5C (KDM5C1–765)) | demethylation activity on methylated H1.4 peptide (KDM4D (KDM4D1–359)) | demethylation activity on methylated H1.4 peptide (KDM4B (KDM4B1–359)) | demethylation at increased enzyme concentration (result in words) (KDM7B (PHF8; KDM7B1–447)) | demethylation at increased enzyme concentration (result in words) (KDM7B (PHF8; KDM7B1–447); listed as H1.4K26me2) | demethylation activity on methylated H1.4 peptide (KDM7B (PHF8; KDM7B1–447); peptide as substrate, MALDI-TOF MS, 1 μM KDM (* = only with 5 μM KDM), 10 μM peptide, 50 mM HEPES pH 7.5, Fe(II) 10 μM, ascorbate 100 μM, 2OG 200 μM, 1 h at 37 °C) | demethylation activity on methylated H1.4 peptide (KDM4A (KDM4A1–359)) | demethylation at increased enzyme concentration (result in words) (KDM7A (KDM7A38–480); MALDI-TOF MS time course, KDM7A 5 μM, peptide 10 μM, 37 °C) | demethylation activity on methylated H1.4 peptide (KDM7A (KDM7A38–480); peptide as substrate, MALDI-TOF MS, 1 μM KDM, 10 μM peptide, 50 mM HEPES pH 7.5, Fe(II) 10 μM, ascorbate 100 μM, 2OG 200 μM, 1 mM TCEP, 1 h at 37 °C) | demethylation activity on methylated H1.4 peptide (KDM6B (KDM6B1141–1590)) | demethylation activity on methylated H1.4 peptide (KDM3A (KDM3A515–1317)) | demethylation activity on methylated H1.4 peptide (KDM4C (KDM4C1–359)) | demethylation activity on methylated H1.4 peptide (KDM2A (KDM2A1–557)) | demethylation activity on methylated H1.4 peptide (KDM4E (KDM4E1–337)) |
| --- | --- | --- | --- | --- | --- | --- | --- | --- | --- | --- | --- | --- | --- | --- | --- | --- | --- |
| APATGGV-Kme3-KPHRYRP [H3(29–43)K36me3, histone H3 residues 29–43 peptide with Kme3 at K36, reference compound] | 66.8 ± 5.4 µM | 0.12 ± 0.004 s⁻¹ | 1900 M⁻¹ s⁻¹ |  |  |  |  |  |  |  |  |  |  |  |  |  |  |
| TPVKKKAR[Lys(Me2)]SAGAAK [H1.4(18–32)K26me2, peptide of residues 18–32 of histone H1.4 with N ε-dimethyllysine at K26] |  |  |  | 🔴 | 🟢 | 🟢 | demethylation of H1.4(18-32)K26me2 is observed | clear evidence for demethylation | 🟡* | 🟢 | clear evidence for demethylation | 🟡 (Indicates that low level demethylation activity was observed (<10% conversion after 1 h)) | 🔴 | 🔴 | 🟢 | 🔴 | 🟢 |
